Assay results: article PMC11110727, “Exploiting thiol-functionalized benzosiloxaboroles for achieving diverse substitution patterns – synthesis, characterization and biological evaluation of promising antibacterial agents” (RSC Medicinal Chemistry, 2024)
In brackets after ≈: the same amount, converted by molar mass.

Key:
[1] = system: E. faecium ATCC 6057; assay: Antibacterial activity: MIC/MBC determination and disc-diffusion; type: cell-based; settings: Enterococcus faecium, ATCC6057; E. faecium ATCC 6057; read-out: MIC
How it was run: (§1)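 Disc-diffusion and broth MIC assays followed EUCAST and CLSI recommendations; MBC/MFC were determined per CLSI. Strains were subcultured twice before testing (bacteria on tryptic soy agar, yeasts on Sabouraud dextrose agar, 24–48 h, 30 °C). Compounds were dissolved in DMSO.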

[2] = system: S. aureus ATCC 43300 MRSA; assay: as above; type: cell-based; settings: Staphylococcus aureus; S. aureus ATCC 43300 MRSA; read-out: MIC
How it was run: as §1

[3] = system: E. cloacae DSM 6234; assay: Antibacterial activity: MIC/MBC, MIC with PAβN, disc-diffusion; type: cell-based, Enterobacter cloacae; settings: Enterobacter cloacae, DSM6234; E. cloacae DSM 6234; read-out: MIC
How it was run: (§2)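 Read-outs are disc-diffusion zones, broth-microdilution MICs and bactericidal concentrations (MBC), following EUCAST and CLSI guidance. The efflux contribution was probed by rerunning MICs with 20 μg mL^−1 PAβN in MgSO4-supplemented (1 mM) Mueller–Hinton II broth, a ≥4-fold decrease being significant.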

[4] = system: P. mirabilis ATCC 12453; assay: as above; type: cell-based, Proteus mirabilis; settings: Proteus mirabilis, ATCC12453; P. mirabilis ATCC 12453; read-out: MIC
How it was run: as §2

[5] = system: S. maltophilia ATCC 13637; assay: as above; type: cell-based, Stenotrophomonas maltophilia; settings: Stenotrophomonas maltophilia, ATCC13637; S. maltophilia ATCC 13637; read-out: MIC
How it was run: as §2

[6] = system: S. maltophilia ATCC 12714; assay: as above; type: cell-based, Stenotrophomonas maltophilia; settings: Stenotrophomonas maltophilia, ATCC12714; S. maltophilia ATCC 12714; read-out: MIC
How it was run: as §2

[7] = system: S. marcescens ATCC 13880; assay: as above; type: cell-based, Serratia marcescens; settings: Serratia marcescens, ATCC13880; S. marcescens ATCC 13880; read-out: MIC
How it was run: as §2

[8] = system: B. cepacia ATCC 25416; assay: Antibacterial activity: MIC/MBC, disc-diffusion; type: cell-based, Burkholderia cepacia; settings: Burkholderia cepacia, ATCC25416; B. cepacia ATCC 25416; read-out: MIC
How it was run: as §2

[9] = system: C. krusei ATCC 6258; assay: Antifungal activity: MIC/MFC, disc-diffusion; type: cell-based; settings: Pichia kudriavzevii, ATCC6258; read-out: MIC
How it was run: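 Compounds in DMSO were tested by disc diffusion and MIC determination following EUCAST/CLSI guidance, with fungicidal concentration (MFC) per CLSI. Strain first grown twice-checked on Sabouraud dextrose agar, 30 °C, 24–48 h.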

[10] = system: E. coli ATCC 25922; assay: Antibacterial activity: MIC/MBC, MIC with PAβN, disc-diffusion; type: cell-based, Escherichia coli; settings: E. coli ATCC 25922
How it was run: as §2

C[Si]1(C)OB(O)c2cc(F)c(S(=O)(=O)Nc3ccc(F)cc3)c(F)c21 [Compound 28, 5,7-Difluoro-N-(4-fluorophenyl)-3-hydroxy-1,1-dimethyl-1,3-dihydrobenzo[c][1,2,5]oxasilaborole-6-sulfonamide]
MIC [1]: 400 µg/mL (≈ 1030 µM) | MIC [2]: 100 µg/mL (≈ 258 µM) | MIC [3]: > 400 µg/mL | MIC [4]: > 400 µg/mL | MIC [5]: > 400 µg/mL | MIC [6]: > 400 µg/mL | MIC [7]: > 400 µg/mL | MIC [8]: > 400 µg/mL | MIC [9]: > 400 µg/mL | -fold reduction of MIC in the presence of PAβN ([10]; PAβN 20 μg mL^−1, MHB + 1 mM MgSO4): 4 -fold | MIC ([10]; Escherichia coli, ATCC25922, read-out: MIC): > 400 µg/mL
